Assay [1] concerns the target T1, Zika NS2B-NS3pro (unlinked complex) (Zika virus, UniProt A0A024B7W1).
T1 construct: DNA fragments encoding the isolated NS3 (14–185) and NS2B (48–100) with the transmembrane regions removed; His-tag (cleaved yes); made in house; host or cells: Escherichia coli BL21 (DE3) Star
As to the kind of experiment: Inhibition of unlinked Zika NS2B-NS3pro, fluorogenic substrate Bz-nKRR-AMC. The following applies: for inhibitory activity (in words): compound concentration up to 500 μM; for Inhibition at 500 μM: initial screening, compound 500 μM, protease 50 nM; for Inhibition at 500 μM / IC50: Bz-nKRR-AMC 250 μM. The assay is classed as biochemical. The procedure:
Due to the urgency to fight ZIKV infection, we attempted to screen the inhibitors of Zika NS2B-NS3pro from natural products rich in edible plants. To better reflect the situation in vivo, here we selected the unlinked Zika NS2B-NS3pro complex for screening. However as most natural products are largely insoluble in aqueous buffers, we have assessed effects of DMSO and glycerol on the conformations (Fig 1E and 1F) as well as on catalytic parameters (Table 1). Consequently, 50 mM Tris buffer at pH 8.5 + 20% Glycerol was utilized as the screening buffer as it could dissolve all natural products in the present study but has no significant effect on the conformation of Zika NS2B-NS3pro (Fig 1F).
To allow comparison with the NS2B-NS3pro complexes of four Dengue serotypes (17), we selected three fluorophore-tagged substrates previously used (17): namely Bz-Nle-Lys-Arg-Arg-AMC, Boc-Gly-Arg-Arg-AMC and Boc-Gly-Lys-Arg-AMC (Bachem AG, Bubendorf), which were dissolved in dimethyl sulfoxide for preparing stock solutions (100 mM). All enzymatic experiments were performed in triplicate and data are presented as mean ± SD, while IC50, Km and Ki were obtained by fitting with GraphPad Prism 7.0 [61].
All natural products were purchased from Sigma-Aldrich, which are all HPLC purified. After optimization of buffer conditions, here, we selected 50 mM Tris-HCl buffer at pH 8.5 in the presence of 20% glycerol which could dissolve all natural products. Briefly, for the initial screening, the Zika protease at 50 nM was preincubated for 30 min with different compounds at final concentrations of 5 and 500 μM dissolved in 1 μl DMSO, followed by adding Bz-nKRR-AMC to 250 μM to initiate reaction. Only the compounds showing significant inhibitions at both concentrations were subjected to further determination of IC50 and Ki.
For Ki determination, the assay was performed with different final concentrations of the inhibitors and substrate. Briefly, the Zika protease at 50 nM was preincubated with the inhibitor at different concentrations for 30 min at 37°C. Subsequently, the reaction was initiated by addition of the corresponding concentration series of the substrate. All measurements were performed in triplicate and data are presented as mean ± SD. The Ki was obtained by fitting in the non-competitive inhibition mode with GraphPad Prism 7.0, with an equation: Vmaxinh = Vmax/(1+I/Ki), while I is the concentration of inhibitor [61].

Assay [2] has as its target Dengue-2 NS2B-NS3pro. Also on record: method as in PMID 25564380. The following applies: allosteric inhibition, previously characterized; cited from earlier work.
The target in assay [3] is linked Zika NS2B-NS3pro. The following applies: linked enzyme, assay buffer pH 7; cited from earlier work.
Setting [4] is: 50 mM Tris-HCl pH 8.5 + 20% glycerol.
Where [5] appears, read: non-competitive fit, protease 50 nM preincubated 30 min at 37°C, 50 mM Tris-HCl pH 8.5 + 20% glycerol, mean ± SD, triplicate, read-out: Ki.
[6] abbreviates: protease 50 nM preincubated 30 min at 37°C, 50 mM Tris-HCl pH 8.5 + 20% glycerol, mean ± SD, triplicate, read-out: IC50.
[7] abbreviates: IC50, protease 50 nM preincubated 30 min at 37°C, 50 mM Tris-HCl pH 8.5 + 20% glycerol, mean ± SD, triplicate.
Setting [8] is: Ki, non-competitive fit, protease 50 nM preincubated 30 min at 37°C, 50 mM Tris-HCl pH 8.5 + 20% glycerol, mean ± SD, triplicate.

SMILES strings stand for the structures. Where “and” joins values, the source holds several entries; their conditions need not be identical. Identical values can stand only once. Entries after “also recorded” stand apart in the source; their conditions may differ. Like-named read-outs stand apart in the source and are kept apart here.

T1 sequence (A0A024B7W1 1420-1472): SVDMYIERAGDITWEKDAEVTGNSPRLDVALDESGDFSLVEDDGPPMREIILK
T1 sequence (A0A024B7W1 1516-1687): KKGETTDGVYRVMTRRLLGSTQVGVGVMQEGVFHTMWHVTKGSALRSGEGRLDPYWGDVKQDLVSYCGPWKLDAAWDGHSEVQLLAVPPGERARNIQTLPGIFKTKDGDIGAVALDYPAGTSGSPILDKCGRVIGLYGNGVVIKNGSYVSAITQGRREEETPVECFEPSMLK

Take `O=c1c(-c2ccc(O)cc2)coc2cc(O)ccc12` [Daidzein]: in assay [1], the “inhibitory activity (in words)” value is “no inhibitory activity was detected; also recorded: inactive”. Moreover, in assay [1] (setting [4]), the “Inhibition at 500 μM” value was “No”.
By Ki is commonly meant the equilibrium dissociation constant of an inhibitor or competing ligand from its target. As usually defined, the IC50 is the midpoint of a concentration-inhibition curve. In the case of `O=c1c(O)c(-c2ccc(O)c(O)c2)oc2cc(O)cc(O)c12` [Quercetin], the Ki in assay [2] is 20.7 µM; in assay [1] (setting [5]), 1.12 µM and 1.1 µM. Moreover, in assay [1] (setting [4]), the “Inhibition at 500 μM” value is “Yes”. The IC50 in assay [1] (setting [6]) is 2.42 µM and 2.4 µM.
Turning to `Oc1cc(O)c2c(c1)O[C@H](c1ccc(O)c(O)c1)[C@@H](O)C2` [Catechin], the “inhibitory activity (in words)” value in assay [1] is “inactive”; in assay [1] (listed as Catechine), “no inhibitory activity was detected”. Also, the “Inhibition at 500 μM” value in assay [1] (setting [4]) was “No”.
On to `O=c1cc(-c2ccc(O)cc2)oc2cc(O)cc(O)c12` [Apigenin], for which the IC50 was determined as 56.3 ± 0.9 µM in assay [1] (setting [7]) and 56.3 µM in assay [1] (setting [6]). The inhibitory constant (Ki) in assay [1] (setting [8]) was determined as 34 µM. For the same compound, in assay [1] (setting [4]), the “Inhibition at 500 μM” value was “Yes”.
For `COc1cc(-c2oc3cc(O)cc(O)c3c(=O)c2O)ccc1O` [Isorhamnetin], the IC50 in assay [1] (setting [7]) is 15.5 µM. For the same compound, the Ki in assay [1] (setting [8]) was 6.22 µM and 6.2 µM. For the same compound, the “Inhibition at 500 μM” value in assay [1] (setting [4]) is on record as “Yes”.
For `O=c1cc(-c2ccc(O)c(O)c2)oc2cc(O)cc(O)c12` [Luteolin], in assay [1] (setting [4]), the “Inhibition at 500 μM” value was “Yes”. For the same compound, in assay [1] (setting [5]), the Ki is 1.4 ± 0.1 µM. Besides, in assay [1] (setting [6]), the IC50 worked out at 2.7 ± 0.3 µM.
`COc1cc(/C=C/C(=O)CC(=O)/C=C/c2ccc(O)c(OC)c2)ccc1O` [Curcumin]: the “Inhibition at 500 μM” value in assay [1] (setting [4]) was “Yes”. The Ki in assay [1] (setting [5]) was 2.61 µM and 2.6 µM. Besides, the IC50 in assay [1] (setting [6]) was 3.45 µM and 3.5 µM.
In the case of `Oc1ccc(/C=C/c2cc(O)cc(O)c2)cc1` [Resveratrol], in assay [1], the “inhibitory activity (in words)” value is “no inhibitory effect was detected; also recorded: no detectable inhibitory activity”. Further, the “Inhibition at 500 μM” value in assay [1] (setting [4]) is “No”.
With `O=c1c(O)c(-c2cc(O)c(O)c(O)c2)oc2cc(O)cc(O)c12` [Myricetin], the Ki in assay [2] is 4.7 µM; in assay [3] it was 8.9 µM; in assay [1] (Ki, non-competitive mode, unlinked enzyme, pH 8.5) it was 0.77 µM; in assay [1] (setting [5]) it was 0.8 ± 0.1 µM. Further, the IC50 amounted to 1.26 µM in assay [1] (setting [7]) and 1.3 ± 0.1 µM in assay [1] (setting [6]). In addition, the “Inhibition at 500 μM” value in assay [1] (setting [4]) is recorded as “Yes”.

The values are drawn from article PMC5503262, “Solution conformations of Zika NS2B-NS3pro and its inhibition by natural products from edible plants” (PLoS ONE, 2017).
